According to paper PMC9583322, “Vicinal Diaryl-Substituted Isoxazole and Pyrazole Derivatives with In Vitro Growth Inhibitory and In Vivo Antitumor Activity” (ACS Omega, 2022):

Experiments:
Huh7 = assay: SRB cytotoxicity assay; format: cell-based, human; conditions: Homo sapiens, Huh-7, 72 h, 72 h treatment
Experimental: (§1) HepG2, FOCUS, Hep3B, Mahlavu, Huh7, Hep40, and PLC-PRF-5 hepatocellular carcinoma cells; MCF-7, MDA-MB-231, MDA-MB-468, SKBR3, and ZR-75 breast cancer cells; and normal-like epithelial MCF-10A breast cells were cultured in low-glucose Dulbecco’s modified Eagle’s medium (DMEM) (Biological Industries-BI) supplemented with 10% fetal bovine serum (FBS) (Gibco/Thermo Fisher Scientific), 2 mM L-Glutamine (Gibco/Thermo Fisher Scientific), 100 Units/mL Penicillin/Streptomycin, and 0.1 mM non-essential amino acid (Gibco/Thermo Fisher Scientific). SNU475 hepatocellular carcinoma cells were maintained in RPMI (Biological Industries-BI) supplemented with 10% fetal bovine serum (FBS) (Gibco/Thermo Fisher Scientific), L-Glutamine (Gibco/Thermo Fisher Scientific), and 100 Units/mL Penicillin/Streptomycin, while ZR-75 breast cancer cells were cultured RPMI (Biological Industries-BI) supplemented with 10% fetal bovine serum (FBS) (Gibco/Thermo Fisher Scientific), 1× sodium pyruvate, and %4.5 glucose. Normal-like MCF-10A breast cells were sustained in DMEM/HAM’S F12 (Hyclone) supplemented with 10% fetal bovine serum (FBS) (Gibco/Thermo Fisher Scientific), EGF (20 ng/mL), Hydrocortisone ([…]), cholera toxin (100 ng/mL), insulin (10 μg/mL), and 100 Units/mL Penicillin/Streptomycin. The cells were cultivated at 37 °C in a humidified incubator under 5% CO2.
(§2) Mahlavu, FOCUS, SNU475 (1000 cell/well in 150 μL/well); Huh7, MCF7 (2500 cell/well in 150 μL/well); HepG2, Hep3B, SKBR3 (3000 cell/well in 150 μL/well); PLC-PRF-5, Hep40 (5000 cell/well in 150 μL/well); MDA-MB-231, MDA-MB-468, MCF10A (6000 cell/well in 150 μL/well); and ZR-75 (7500 cell/well in 150 μL/well) were cultured in 96-well plates and were inoculated in an incubator for 24 hours. The compounds were dissolved in dimethyl sulfoxide (DMSO) (Sigma, St Louis, MO) as a 20 mM stock solution. The treatment of cells with the compounds was done in a concentration range starting from 40 to 2.5 μM. The compounds which were below 2.5 μM were tested in a concentration range from 2.5 to 0.15 μM. End of the 72h compound treatment, the cells were fixed using 10% (v/v) trichloroacetic acid (MERCK) for an hour and washed with ddH2O, and left for air-drying. The fixed plates were stained with 50 μL of sulforhodamine B (SRB) solution (Sigma) at RT for 10 min. To remove unbound SRB dye, acetic acid was used to wash cells three times and left for drying. The protein-bound SRB was solubilized with 10 mM Tris-base (Sigma) and their absorbance was measured with a 96-well plate reader at 515 nm wavelength (ELx800, Biotek). The IC50 values of compounds were calculated in comparison with control group DMSO. Data with R^2 values larger than 0.9 are considered significant.

MCF7 = assay: SRB cytotoxicity assay; format: cell-based, human; conditions: 72 h treatment
Experimental: as §1, §2

Mahlavu = assay: SRB cytotoxicity assay; format: cell-based, human; conditions: 72 h treatment
Experimental: as §1, §2

SMILES	IC50 (Huh7)	IC50 (MCF7)	IC50 (MCF7; Homo sapiens, MCF7, 72 h)	IC50 (Mahlavu; Homo sapiens, Mahlavu, 72 h)	melting point	IC50 (Mahlavu)
Cc1ccccc1COc1ccc(-c2onc(C)c2-c2ccc(Cl)cc2)cc1 [compound 60, 4-(4-Chlorophenyl)-3-methyl-5-(4-((2-methylbenzyl)oxy)phenyl)isoxazole]	3.8 µM	19.6 µM	~19 µM	9.4 µM	153.8 to 154.9 °C	
Cc1ccccc1COc1ccc(-c2ccnn2-c2ccc(Cl)cc2)cn1 [compound 87, 5-(1-(4-Chlorophenyl)-1H-pyrazol-5-yl)-2-((2-methylbenzyl)oxy)pyridine]	> 20 µM		> 20 µM	> 20 µM	126.5 to 127.8 °C	
Cc1ccccc1COc1ccc(-n2nccc2-c2ccc(Cl)cc2)cc1 [compound 78, 5-(4-Chlorophenyl)-1-(4-((2-methylbenyl)oxy)phenyl)-1H-pyrazole]	> 20 µM		> 20 µM	> 20 µM	145.2 to 146.4 °C	
Cc1ccccc1COc1ccc(-c2oncc2-c2ccc(Cl)cc2)cc1 [compound 63, 4-(4-Chlorophenyl)-5-(4-((2-methylbenzyl)oxy)phenyl)isoxazole]	1.5 µM	> 20 µM	≥ 20 µM	≥ 20 µM	115.3 to 117.3 °C	20.1 µM
Cc1ccccc1COc1ccc(-c2ccnn2-c2ccc(Cl)cc2)nc1 [compound 86, 2-(1-(4-Chlorophenyl)-1H-pyrazol-5-yl)-5-((2-methylbenzyl)oxy)pyridine]	2 µM	21.7 µM	≥ 20 µM	7.1 µM	108.4 to 110.4 °C	
Cc1onc(-c2ccc(OCc3ccccc3OC(F)F)cc2)c1-c1ccc(Cl)cc1 [compound 14, 4-(4-Chlorophenyl)-3-(4-((2-(difluoromethoxy)benzyl)oxy)phenyl)-5-methylisoxazole]	13.8 µM		8.5 µM		95.5 to 96.9 °C	
Cc1ccccc1COc1ccc(-c2ccnn2-c2ccc(Cl)cc2)cc1F [compound 89, 1-(4-Chlorophenyl)-5-(3-fluoro-4-((2-methylbenzyl)oxy)phenyl)-1H-pyrazole]	> 20 µM		> 20 µM	> 20 µM	95 to 95.4 °C	
Cc1onc(-c2ccc(OCc3ccccc3OC(F)(F)F)cc2)c1-c1ccc(Cl)cc1 [compound 13, 4-(4-Chlorophenyl)-5-methyl-3-(4-((2-(trifluoromethoxy)benzyl)oxy)phenyl)isoxazole]	16.3 µM		> 20 µM		85.8 to 86.7 °C	
COc1ccc(COc2ccc(-c3noc(C)c3-c3ccc(Cl)cc3)cc2)cc1 [compound 25, 4-(4-Chlorophenyl)-3-(4-((4-methoxybenzyl)oxy)phenyl)-5-methylisoxazole]	> 20 µM		> 20 µM		126.1 to 127.4 °C	
Cc1ccccc1COc1ccc(-c2noc(C)c2-c2ccc(Cl)cc2)c(F)c1 [compound 56, 4-(4-Chlorophenyl)-3-(2-fluoro-4-((2-methylbenzyl)oxy)phenyl)-5-methylisoxazole]	2.25 µM		9.53 µM		96.1 to 98.3 °C	
Cc1onc(-c2ccc(OCc3ccc(C(=O)O)cc3)cc2)c1-c1ccc(Cl)cc1 [compound 29, 4-((4-(4-(4-Chlorophenyl)-5-methylisoxazol-3-yl)phenoxy)methyl)benzoic acid]	8.6 µM		15 µM		210.8 to 212.4 °C	
Cc1onc(-c2ccc(OCc3cccnc3)cc2)c1-c1ccc(Cl)cc1 [compound 32, 4-(4-Chlorophenyl)-5-methyl-3-(4-(pyridin-3-ylmethoxy)phenyl)isoxazole]	7.7 µM		8.3 µM		115.5 to 116.4 °C	
Cc1ccccc1COc1ccc(-c2noc(C)c2-c2cccc(C(F)(F)F)c2)cc1 [compound 49, 5-Methyl-4-(3-trifluoromethylphenyl)-3-(4-((2-methylbenzyl)oxy)phenyl)isoxazole]	19 µM		> 20 µM		120.7 to 122.4 °C	
Cc1ccccc1COc1ccc(-c2noc(C)c2-c2ccncc2)cc1 [compound 55, 5-Methyl-3-(4-((2-methylbenzyl)oxy)phenyl)-4-(pyridin-4-yl)isoxazole]	> 20 µM		> 20 µM		128.5 to 129.3 °C	
Cc1nc(-c2ccc(OCc3ccccc3C)cc2)c(-c2ccc(Cl)cc2)s1 [compound 75, 5-(4-Chlorophenyl)-2-methyl-4-(4-((2-methylbenzyl)oxy)phenyl)thiazole]	> 20 µM		> 20 µM	> 20 µM	90.5 to 92.1 °C	
Cc1cccnc1COc1ccc(-c2noc(C)c2-c2ccc(Cl)cc2)cc1 [compound 36, 4-(4-Chlorophenyl)-5-methyl-3-(4-((3-methylpyridin-2-yl)methoxy)phenyl)isoxazole]	9.4 µM	> 20 µM	≥ 20 µM		138.7 to 141.2 °C	
Cc1ccccc1COc1ccc(-c2noc(C)c2-c2ccc(Cl)cc2Cl)cc1 [compound 53, 5-Methyl-4-(2,4-dichlorophenyl)-3-(4-((2-methylbenzyl)oxy)phenyl)isoxazole]	8.2 µM		19.2 µM		98 to 98.4 °C	
Cc1cc(COc2ccc(-c3noc(C)c3-c3ccc(Cl)cc3)cc2)n(C)n1 [compound 40, 4-(4-Chlorophenyl)-3-(4-((1,3-dimethyl-1H-pyrazol-5-yl)methoxy)phenyl)-5-methylisoxazole]	0.9 µM		12.2 µM		156.4 to 157.9 °C	
Cc1onc(-c2ccc(OCc3cccc(F)c3)cc2)c1-c1ccc(Cl)cc1 [compound 21, 4-(4-Chlorophenyl)-3-(4-((3-fluorobenzyl)oxy)phenyl)-5-methylisoxazole]	> 20 µM		> 20 µM		98.1 to 99.8 °C	
Cc1ccccc1CNc1ccc(-c2noc(C)c2-c2ccc(Cl)cc2)cc1 [compound 59, 4-(4-(4-Chlorophenyl)-5-methylisoxazol-3-yl)-N-(2-methylbenzyl)aniline]	4 µM	> 20 µM	≥ 20 µM		134.9 to 137 °C	
Cc1ccccc1CNc1ccc(-c2ccnn2-c2ccc(Cl)cc2)cc1 [compound 92, 4-(1-(4-Chlorophenyl)-1H-pyrazol-5-yl)-N-(2-methylbenzyl)aniline]	3.6 µM		> 20 µM	4.5 µM	141.5 to 142.8 °C	
Cc1onc(-c2ccc(OCc3ccc(C#N)cc3)cc2)c1-c1ccc(Cl)cc1 [compound 27, 4-((4-(4-(4-Chlorophenyl)-5-methylisoxazol-3-yl)phenoxy)methyl)benzonitrile]	11.7 µM		> 20 µM		138.5 to 139.5 °C	
Cc1ccccc1COc1ccc(-c2noc(C)c2-c2ccc(N)cc2)cc1 [compound 51, 5-Methyl-4-(4-aminophenyl)-3-(4-((2-methylbenzyl)oxy)phenyl)isoxazole]	16.9 µM		19.7 µM		119.4 to 121.1 °C	
Cc1ccccc1COc1ccc(-c2noc(C)c2-c2ccc(C#N)cc2)cc1 [compound 48, 5-Methyl-4-(4-cyanophenyl)-3-(4-((2-methylbenzyl)oxy)phenyl)isoxazole]	6.7 µM	> 20 µM	≥ 20 µM		135.3 to 137.1 °C	
Cc1onc(-c2ccc(OCc3ccccc3F)cc2)c1-c1ccc(Cl)cc1 [compound 15, 4-(4-Chlorophenyl)-3-(4-((2-fluorobenzyl)oxy)phenyl)-5-methylisoxazole]	> 20 µM		> 20 µM		119.5 to 120.9 °C	
